# In patent US6479435B1, “Diaryl ethers and processes for their preparation and herbicidal and desiccant compositions containing them” (ISK Americas Incorporated, priority 1997, dated 2002):
# Assays:
# Assay type in all cases: in vivo
# [1] = system: Johnsongrass (Sorghum halepense, SORHA); assay: Pre-emerge greenhouse herbicide test, phytotoxicity rating; settings: 14 days after application, rating scale 0-100
# How it was run: (§1)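 Seeds sown in sandy loam mix one day before track-sprayer application of compounds in acetone at 125–1000 g ai/ha (187 l/ha), then surface-watered to incorporate and bottom-watered. Visual rating 14 days after application on a 0–100 scale (0 = no damage, 100 = all plants dead).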
# [2] = system: barnyardgrass (Echinochloa crusgalli, ECHCG); assay: as above; settings: 14 days after application, rating scale 0-100
# How it was run: as §1
# [3] = system: common ragweed (Ambrosia artemisiifolia L., AMBEL); assay: as above; settings: 14 days after application, rating scale 0-100
# How it was run: as §1
# [4] = system: green foxtail (Setaria viridis, SETVI); assay: as above; settings: 14 days after application, rating scale 0-100
# How it was run: as §1
# [5] = system: ivyleaf morningglory (Ipomoea hederacea, IPOHE); assay: as above; settings: 14 days after application, rating scale 0-100
# How it was run: as §1
# [6] = system: lambsquarters (Chenopodium album, CHEAL); assay: as above; settings: 14 days after application, rating scale 0-100
# How it was run: as §1
# [7] = system: large crabgrass (Digitaria sanguinalis, DIGSA); assay: as above; settings: 14 days after application, rating scale 0-100
# How it was run: as §1
# [8] = system: redroot pigweed (Amaranthus retroflexus, AMARE); assay: as above; settings: 14 days after application, rating scale 0-100
# How it was run: as §1
# [9] = system: sicklepod (Cassia obtusifolia, CASOB); assay: as above; settings: 14 days after application, rating scale 0-100
# How it was run: as §1
# [10] = system: velvetleaf (Abutilon theophrasti, ABUTH); assay: as above; settings: 14 days after application, rating scale 0-100
# How it was run: as §1
# [11] = system: field corn (Zea mays L., var. Dekalb 535, CORN); assay: Pre-emerge greenhouse test, crop damage rating; settings: 14 days after application, rating scale 0-100
# How it was run: as §1
# [12] = system: upland rice (Oryza sp., var.Tebonnet, RICE); assay: Pre-emerge greenhouse test, crop damage rating; settings: 14 days after application, rating scale 0-100
# How it was run: as §1
# [13] = system: soybean (Glycine max L., var. Pella 86, SOY); assay: Pre-emerge greenhouse test, crop damage rating; set-up: key to SOY crop damage rating: 0 = no damage, 100 = complete death of all plants; settings: 14 days after application, rating scale 0-100
# How it was run: as §1
# [14] = system: common ragweed (Ambrosia artemisiifolia L., AMBEL); assay: Post-emerge greenhouse herbicide test, phytotoxicity rating; settings: 14 days after application, scale 0-100
# How it was run: (§2)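 Compounds in acetone with 0.25% v/v non-ionic surfactant were track-sprayed at 187 l/ha over plants at the 2-3 leaf stage, at 63 to 1000 g ai/ha. Pots were bottom-watered. Injury was scored visually 14 days later on a 0-100 scale, where 0 is no damage and 100 is complete plant death.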
# [15] = system: Johnsongrass (Sorghum halepense, SORHA); assay: as above; settings: 14 days after application, scale 0-100
# How it was run: as §2
# [16] = system: barnyardgrass (Echinochloa crusgalli, ECHCG); assay: as above; settings: 14 days after application, scale 0-100
# How it was run: as §2
# [17] = system: green foxtail (Setaria viridis, SETVI); assay: as above; settings: 14 days after application, scale 0-100
# How it was run: as §2
# [18] = system: ivyleaf morningglory (Ipomoea hederacea, IPOHE); assay: as above; settings: 14 days after application, scale 0-100
# How it was run: as §2
# [19] = system: lambsquarters (Chenopodium album, CHEAL); assay: as above; settings: 14 days after application, scale 0-100
# How it was run: as §2
# [20] = system: large crabgrass (Digitaria sanguinalis, DIGSA); assay: as above; settings: 14 days after application, scale 0-100
# How it was run: as §2
# [21] = system: redroot pigweed (Amaranthus retroflexus, AMARE); assay: as above; settings: 14 days after application, scale 0-100
# How it was run: as §2
# [22] = system: sicklepod (Cassia obtusifolia, CASOB); assay: as above; settings: 14 days after application, scale 0-100
# How it was run: as §2
# [23] = system: velvetleaf (Abutilon theophrasti, ABUTH); assay: as above; settings: 14 days after application, scale 0-100
# How it was run: as §2
# [24] = system: field corn (Zea mays L., var. Dekalb 535, CORN); assay: Post-emerge greenhouse test, crop damage rating; settings: 14 days after application, scale 0-100
# How it was run: as §2
# [25] = system: upland rice (Oryza sp., var.Tebonnet, RICE); assay: Post-emerge greenhouse test, crop damage rating; settings: 14 days after application, scale 0-100
# How it was run: as §2
# [26] = system: soybean (Glycine max L., var. Pella 86, SOY); assay: Post-emerge greenhouse test, crop damage rating; set-up: key to crop damage rating SOY: 0-100 scale: 0 = no damage, 100 = complete death of all plants; settings: 14 days after application, scale 0-100
# How it was run: as §2
structure (smiles),measurement,setting,value
CC(C)S(=O)(=O)c1cccnc1Oc1cc(-n2c(=O)n3n(c2=S)CCCC3)c(F)cc1Cl [Compound 8-37],SORHA phytotoxicity rating,[1]; Rate 125 g al/ha,20
same,SORHA phytotoxicity rating,[1]; Rate 500 g al/ha,80
same,ECHCG phytotoxicity rating,[2]; Rate 125 g al/ha,30
same,ECHCG phytotoxicity rating,[2]; Rate 500 g al/ha,100
same,AMBEL phytotoxicity rating,[3]; Rate 125 g al/ha,100
same,AMBEL phytotoxicity rating,[3]; Rate 500 g al/ha,100
same,SETVI phytotoxicity rating,[4]; Rate 125 g al/ha,100
same,SETVI phytotoxicity rating,[4]; Rate 500 g al/ha,100
same,IPOHE phytotoxicity rating,[5]; Rate 125 g al/ha,30
same,IPOHE phytotoxicity rating,[5]; Rate 500 g al/ha,85
same,CHEAL phytotoxicity rating,[6]; Rate 125 g al/ha,100
same,CHEAL phytotoxicity rating,[6]; Rate 500 g al/ha,100
same,DIGSA phytotoxicity rating,[7]; Rate 125 g al/ha,80
same,DIGSA phytotoxicity rating,[7]; Rate 500 g al/ha,100
same,AMARE phytotoxicity rating,[8]; Rate 125 g al/ha,100
same,AMARE phytotoxicity rating,[8]; Rate 500 g al/ha,100
same,CASOB phytotoxicity rating,[9]; Rate 125 g al/ha,0
same,CASOB phytotoxicity rating,[9]; Rate 500 g al/ha,80
same,ABUTH phytotoxicity rating,[10]; Rate 125 g al/ha,100
same,ABUTH phytotoxicity rating,[10]; Rate 500 g al/ha,100
same,CORN crop damage rating,[11]; Rate 125 g al/ha,0
same,CORN crop damage rating,[11]; Rate 500 g al/ha,25
same,RICE crop damage rating,[12]; Rate 125 g al/ha,10
same,RICE crop damage rating,[12]; Rate 500 g al/ha,80
same,SOY crop damage rating,[13]; Rate 125 g al/ha,50
same,SOY crop damage rating,[13]; Rate 500 g al/ha,80
same,phytotoxicity rating AMBEL,[14]; rate 63 g ai/ha,30
same,phytotoxicity rating AMBEL,[14]; rate 500 g ai/ha,60
same,phytotoxicity rating SORHA,[15]; rate 63 g ai/ha,0
same,phytotoxicity rating SORHA,[15]; rate 500 g ai/ha,50
same,phytotoxicity rating ECHCG,[16]; rate 63 g ai/ha,0
same,phytotoxicity rating ECHCG,[16]; rate 500 g ai/ha,10
same,phytotoxicity rating SETVI,[17]; rate 63 g ai/ha,0
same,phytotoxicity rating SETVI,[17]; rate 500 g ai/ha,30
same,phytotoxicity rating IPOHE,[18]; rate 63 g ai/ha,95
same,phytotoxicity rating IPOHE,[18]; rate 500 g ai/ha,80
same,phytotoxicity rating CHEAL,[19]; rate 63 g ai/ha,90
same,phytotoxicity rating CHEAL,[19]; rate 500 g ai/ha,90
same,phytotoxicity rating DIGSA,[20]; rate 63 g ai/ha,0
same,phytotoxicity rating DIGSA,[20]; rate 500 g ai/ha,0
same,phytotoxicity rating AMARE,[21]; rate 63 g ai/ha,90
same,phytotoxicity rating AMARE,[21]; rate 500 g ai/ha,95
same,phytotoxicity rating CASOB,[22]; rate 63 g ai/ha,100
same,phytotoxicity rating CASOB,[22]; rate 500 g ai/ha,95
same,phytotoxicity rating ABUTH,[23]; rate 63 g ai/ha,100
same,phytotoxicity rating ABUTH,[23]; rate 500 g ai/ha,100
same,crop damage rating CORN,[24]; rate 63 g ai/ha,0
same,crop damage rating CORN,[24]; rate 500 g ai/ha,40
same,crop damage rating RICE,[25]; rate 63 g ai/ha,0
same,crop damage rating RICE,[25]; rate 500 g ai/ha,35
same,crop damage rating SOY,[26]; rate 63 g ai/ha,90
same,crop damage rating SOY,[26]; rate 500 g ai/ha,100
CCOC(=O)C(C)Oc1cc([N+](=O)[O-])c(Oc2cc(-n3c(=O)n4n(c3=S)CCCC4)c(F)cc2Cl)cc1Cl (centres unmarked) [Compound 8-38],SORHA phytotoxicity rating,[1]; Rate 125 g al/ha,0
same,SORHA phytotoxicity rating,[1]; Rate 250 g al/ha,0
same,ECHCG phytotoxicity rating,[2]; Rate 125 g al/ha,0
same,ECHCG phytotoxicity rating,[2]; Rate 250 g al/ha,0
same,AMBEL phytotoxicity rating,[3]; Rate 125 g al/ha,0
same,AMBEL phytotoxicity rating,[3]; Rate 250 g al/ha,0
same,SETVI phytotoxicity rating,[4]; Rate 125 g al/ha,0
same,SETVI phytotoxicity rating,[4]; Rate 250 g al/ha,70
same,IPOHE phytotoxicity rating,[5]; Rate 125 g al/ha,0
same,IPOHE phytotoxicity rating,[5]; Rate 250 g al/ha,30
same,CHEAL phytotoxicity rating,[6]; Rate 125 g al/ha,80
same,CHEAL phytotoxicity rating,[6]; Rate 250 g al/ha,90
same,DIGSA phytotoxicity rating,[7]; Rate 125 g al/ha,0
same,DIGSA phytotoxicity rating,[7]; Rate 250 g al/ha,0
same,AMARE phytotoxicity rating,[8]; Rate 125 g al/ha,30
same,AMARE phytotoxicity rating,[8]; Rate 250 g al/ha,80
same,CASOB phytotoxicity rating,[9]; Rate 125 g al/ha,0
same,CASOB phytotoxicity rating,[9]; Rate 250 g al/ha,0
same,ABUTH phytotoxicity rating,[10]; Rate 125 g al/ha,100
same,ABUTH phytotoxicity rating,[10]; Rate 250 g al/ha,100
same,CORN crop damage rating,[11]; Rate 125 g al/ha,0
same,CORN crop damage rating,[11]; Rate 250 g al/ha,0
same,RICE crop damage rating,[12]; Rate 125 g al/ha,0
same,RICE crop damage rating,[12]; Rate 250 g al/ha,0
same,SOY crop damage rating,[13]; Rate 125 g al/ha,0
same,SOY crop damage rating,[13]; Rate 250 g al/ha,0
same,phytotoxicity rating AMBEL,[14]; rate 63 g ai/ha,20
same,phytotoxicity rating AMBEL,[14]; rate 250 g ai/ha,50
same,phytotoxicity rating SORHA,[15]; rate 63 g ai/ha,0
same,phytotoxicity rating SORHA,[15]; rate 250 g ai/ha,0
same,phytotoxicity rating ECHCG,[16]; rate 63 g ai/ha,0
same,phytotoxicity rating ECHCG,[16]; rate 250 g ai/ha,0
same,phytotoxicity rating SETVI,[17]; rate 63 g ai/ha,0
same,phytotoxicity rating SETVI,[17]; rate 250 g ai/ha,20
same,phytotoxicity rating IPOHE,[18]; rate 63 g ai/ha,40
same,phytotoxicity rating IPOHE,[18]; rate 250 g ai/ha,100
same,phytotoxicity rating CHEAL,[19]; rate 63 g ai/ha,40
same,phytotoxicity rating CHEAL,[19]; rate 250 g ai/ha,50
same,phytotoxicity rating DIGSA,[20]; rate 63 g ai/ha,0
same,phytotoxicity rating DIGSA,[20]; rate 250 g ai/ha,0
same,phytotoxicity rating AMARE,[21]; rate 63 g ai/ha,60
same,phytotoxicity rating AMARE,[21]; rate 250 g ai/ha,70
same,phytotoxicity rating CASOB,[22]; rate 63 g ai/ha,30
same,phytotoxicity rating CASOB,[22]; rate 250 g ai/ha,30
same,phytotoxicity rating ABUTH,[23]; rate 63 g ai/ha,100
same,phytotoxicity rating ABUTH,[23]; rate 250 g ai/ha,00
same,crop damage rating CORN,[24]; rate 63 g ai/ha,0
same,crop damage rating CORN,[24]; rate 250 g ai/ha,20
same,crop damage rating RICE,[25]; rate 63 g ai/ha,20
same,crop damage rating RICE,[25]; rate 250 g ai/ha,50
same,crop damage rating SOY,[26]; rate 63 g ai/ha,10
same,crop damage rating SOY,[26]; rate 250 g ai/ha,20
